Molecular target: tau (Homo sapiens, UniProt P10636)
Assay: MCE Phenols Library screening, tau biosensor cell seeding assay (AvZ)
Format: cell-based
Details: for Z repl 1 / Z Repl 2: Z score; for Z repl 1 / raw data 1: replicate 1; for Z Repl 2 / raw data 2: replicate 2; for AvZ (average z score of seeding, SDs from the mean level of seeding): 10 μM phenol in cell cultures, AD brain homogenate preincubated 16 hours, two biological replicates, positive = catalyzes seeding, negative = inhibits
[1] = average Z score of the two replicates, tau seeding
[2] = average puncta of the two replicates
[3] = average Z score of two replicates, Phenols Library screen
[4] = average Z score of the two replicates, MCE Phenols Library screen

Sequence of tau (P10636 623-695 limits assumed): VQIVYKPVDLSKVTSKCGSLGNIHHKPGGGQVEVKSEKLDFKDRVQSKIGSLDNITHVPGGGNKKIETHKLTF

Compound | Z repl 1 | Z Repl 2 | av Z [1] | av puncta (average of raw data 1 and 2) | raw data 1 (puncta) | raw data 2 (puncta) | AvZ (average z score of seeding, SDs from the mean level of seeding) | av puncta [2] | raw data 1 (raw puncta) | raw data 2 (raw puncta) | av Z [3] | av Z [4]
COc1cc(-c2coc3c([C@@H]4O[C@H](CO)[C@@H](O)[C@H](O)[C@H]4O)c(O)ccc3c2=O)ccc1O [3'-Methoxypuerarin] | 0.567 | -0.096 | 0.236 | 22452.2 | 33160 | 11744.3 |  |  |  |  |  | 
COc1cc(O)cc(OC)c1 [3,5-Dimethoxyphenol] | 0.645 | -0.096 |  | 22916.8 | 34097.4 | 11736.1 | 0.275 |  |  |  |  | 
O=C(O)CCc1cccc(O)c1 [3-(3-Hydroxyphenyl)propionic acid] | 1.121 | 1.553 |  | 34577.7 | 39805 | 29350.4 | 1.337 |  |  |  |  | 
N[C@@H](Cc1ccc(O)c(Cl)c1)C(=O)O [3-Chloro-L-tyrosine] | 0.451 | -0.515 |  | 19517.9 | 31767.4 | 7268.49 | -0.032 |  |  |  |  | 
O=Cc1cccc(O)c1 [3-Hydroxybenzaldehyde] | 0.08 | -0.354 |  | 18142.7 | 27305.1 | 8980.23 | -0.137 |  |  |  |  | 
O=C(O)c1cccc(O)c1 [3-Hydroxybenzoic acid] | -0.749 | -0.88 |  | 10365.4 | 17360.5 | 3370.33 | -0.814 |  |  |  |  | 
O=C(O)CNC(=O)c1cccc(O)c1 [3-Hydroxyhippuric acid] | 0.493 | -0.448 |  | 20125.5 | 32267.3 | 7983.73 | 0.023 |  |  |  |  | 
O=C(O)Cc1cccc(O)c1 [3-Hydroxyphenylacetic acid] | 0.164 | -0.218 |  | 19376.5 | 28313.1 | 10440 | -0.027 |  |  |  |  | 
COc1cc(CCN)ccc1O [3-Methoxytyramine] | 0.052 | -0.661 |  |  |  |  | -0.304 | 16341.1 | 26971.9 | 5710.28 |  | 
Cc1cccc(O)c1O [3-Methylcatechol] | -0.458 | -0.383 |  |  |  |  | -0.42 | 14763.7 | 20851.2 | 8676.12 |  | 
N[C@@H](Cc1ccc(O)c([N+](=O)[O-])c1)C(=O)O [3-Nitro-L-tyrosine] | 0.936 | 1.418 |  | 32750.4 | 37588.7 | 27912.2 | 1.177 |  |  |  |  | 
COC(=O)[C@]1(O)C[C@@H](O)[C@@H](O)[C@H](OC(=O)/C=C/c2ccc(O)c(O)c2)C1 [3-O-Caffeoylquinic acid methyl ester] | -0.373 | 0.274 |  | 18786.4 | 21876.3 | 15696.4 |  |  |  |  | -0.049 | 
COc1cc(C(=O)O)cc(O)c1O [3-O-Methylgallic acid] | -1.04 | -0.532 |  | 10472 | 13858.8 | 7085.12 | -0.786 |  |  |  |  | 
O=c1cc(-c2ccc(O)cc2)oc2cccc(O)c12 [4',5-Dihydroxyflavone] | 0.443 | 0.397 | 0.42 | 24336.3 | 31664.4 | 17008.3 |  |  |  |  |  | 
CC(=O)c1ccc(O)c(C)c1 [4'-Hydroxy-3'-methylacetophenone] | 0.035 | -0.259 |  | 18387.5 | 26771.9 | 10003.1 | -0.112 |  |  |  |  | 
O=C(/C=C/c1ccccc1)c1ccc(O)cc1 [4'-Hydroxychalcone] | 0.138 | 0.314 | 0.226 | 22065.5 | 28009.6 | 16121.4 |  |  |  |  |  | 
COc1ccc(/C=C/c2cc(O)cc(O)c2)cc1 [4'-Methoxyresveratrol] | 0.613 | 0.599 | 0.606 | 26435.9 | 33711.1 | 19160.7 |  |  |  |  |  | 
COc1cc(O)c(C(=O)/C=C/c2ccc(O)cc2)cc1CC=C(C)C [4'-O-Methylbavachalcone] | -0.312 | 0.23 |  | 18915.2 | 22607.8 | 15222.5 |  |  |  |  | -0.041 | 

Compound | Z repl 1 | Z Repl 2 | av Z [1] | av puncta (average of raw data 1 and 2) | raw data 1 (puncta) | raw data 2 (puncta) | AvZ (average z score of seeding, SDs from the mean level of seeding) | av puncta [2] | raw data 1 (raw puncta) | raw data 2 (raw puncta) | av Z [3] | av Z [4]
O=C(C=Cc1ccc(O)c(O)c1)OC1CC(O)(C(=O)O)CC(O)C1OC(=O)C=Cc1ccc(O)c(O)c1 (stereo not shown) [4,5-Dicaffeoylquinic acid] | -1.017 | -0.252 |  |  | 14137.8 | 10071.7 |  | 12104.8 |  |  |  | -0.635
OCC(O)c1ccc(O)c(O)c1 (stereo not shown) [4-(1,2-Dihydroxyethyl)benzene-1,2-diol] | -0.442 | -0.042 |  |  |  |  | -0.242 | 16682.4 | 21044.7 | 12320.1 |  | 
C=CCc1ccc(O)c(O)c1 [4-Allylcatechol] | -0.394 | -1.127 |  | 11173.7 | 21621.8 | 725.499 | -0.761 |  |  |  |  | 
CCc1ccc(O)cc1O [4-Ethylresorcinol] | -1.505 | -0.734 |  | 6604.27 | 8283.51 | 4925.02 | -1.119 |  |  |  |  | 
COc1cc(/C=C/C(=O)O[C@H]2[C@H](O)C[C@](O)(C(=O)O)C[C@H]2O)ccc1O [4-Feruloylquinic acid] | -1.622 | -0.646 |  | 6372.47 | 6875.06 | 5869.87 |  |  |  |  |  | -1.134
O=Cc1c[nH]c2cccc(O)c12 [4-Hydroxy-1H-indole-3-carbaldehyde] | 0.51 | -0.086 |  | 22163.8 | 32475.1 | 11852.6 | 0.212 |  |  |  |  | 
O=C(O)c1ccc(O)cc1 [4-Hydroxybenzoic acid] | -0.323 | -0.785 |  |  | 22475.3 | 4386.59 | -0.554 | 13431 |  |  |  | 
N#CCc1ccc(O)cc1 [4-Hydroxybenzyl cyanide] | 0.423 | -0.552 |  | 19148.8 | 31425.1 | 6872.51 | -0.064 |  |  |  |  | 
NCc1ccc(O)cc1 [4-Hydroxybenzylamine] | -0.693 | -0.451 |  |  | 18024.8 | 7945.11 | -0.572 | 12984.9 |  |  |  | 
O=C(/C=C/c1ccc(O)cc1)c1ccccc1 [4-Hydroxychalcone] | -0.784 | -0.093 |  |  |  |  |  | 14353.6 | 16932.9 | 11774.3 |  | -0.439
CCC1(c2ccc(O)cc2)NC(=O)N(C)C1=O (stereo not shown) [4-Hydroxymephenytoin] | -0.081 | -0.754 |  |  |  |  |  | 15044.9 | 25375.4 | 4714.28 |  | -0.418
CC(=O)OCCc1ccc(O)c(O)c1 [4-Hydroxytyrosol acetate] |  |  |  |  |  |  | -0.526 |  |  |  |  | 
COc1ccc(C=O)cc1 [4-Methoxybenzaldehyde] | -0.17 | 0.786 |  | 22737.8 | 24311 | 21164.6 | 0.308 |  |  |  |  | 
Cc1ccc(O)c(O)c1 [4-Methylcatechol] | -1.54 | -0.975 |  | 5109.52 | 7864.83 | 2354.22 | -1.257 |  |  |  |  | 
Cc1cc(=O)oc2c(O)c(O)ccc12 [4-Methyldaphnetin] | -1.037 | -0.74 |  | 9377.72 | 13895.3 | 4860.11 |  |  |  |  |  | -0.889
Cc1cc(=O)oc2cc(O)c(O)cc12 [4-Methylesculetin] | 0.302 | -0.022 | 0.14 | 21252.2 | 29975.4 | 12529 |  |  |  |  |  | 
Cc1cc(=O)oc2cc(O)ccc12 [4-Methylumbelliferone] | -0.898 | -0.379 |  |  | 15562.7 | 8717.47 |  | 12140.1 |  |  |  | -0.639

Source: publication PMC11784839, “Monoaminergic neurotransmitters are bimodal effectors of tau aggregation” (Science Advances, 2025)
